IC50 data for 20 compounds are collected here from patent US20240270741A1 (Cogent Biosciences, Inc., priority 2023, published 2024).

In the experiment the target is FGFR2 (Homo sapiens, UniProt P21802). The experiment can be described thus: FGFR wild type enzyme assay (HTRF KinEASE-TK), FGFR2. The note with it: Enz FGFR2 (nM), FGFR2 wild type enzyme. (Time-resolved FRET reads energy transfer from a long-lived donor to a nearby acceptor.)
Sequence of FGFR2 (P21802 399-821 limits assumed): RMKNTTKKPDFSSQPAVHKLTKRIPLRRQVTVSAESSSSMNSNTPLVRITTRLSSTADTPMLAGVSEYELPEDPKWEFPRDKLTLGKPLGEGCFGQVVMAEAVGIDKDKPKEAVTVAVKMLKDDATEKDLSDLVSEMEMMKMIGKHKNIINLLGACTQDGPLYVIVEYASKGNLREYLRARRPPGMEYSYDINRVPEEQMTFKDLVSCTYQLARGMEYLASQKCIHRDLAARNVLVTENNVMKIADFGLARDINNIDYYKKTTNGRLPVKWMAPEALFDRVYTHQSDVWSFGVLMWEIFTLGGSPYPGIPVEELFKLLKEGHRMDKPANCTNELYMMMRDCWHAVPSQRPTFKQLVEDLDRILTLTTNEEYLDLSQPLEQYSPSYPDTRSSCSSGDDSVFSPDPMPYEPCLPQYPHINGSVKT
Protocol: Activity against FGFR wild type and mutant enzymes were determined in biochemical assays using purified intracellular domains of the respective isoforms using HTRF KinEASE-TK assay technology from CisBio, now PerkinElmer. (Catalogue number 62TK0PEC). Briefly test compounds were tested in 11 point 1:3 serial dilutions, typical final concentration ranges from 10,000 nM to 0.17 nM. Test compounds were dissolved in DMSO and added to assay plates using acoustic transfer. Enzyme was pre-incubated with test compound for 30 minutes and the assay was initiated by addition of ATP and TK-peptide substrate. After 60 minutes at room temperature the reaction was quenched with detection reagent and incubated for an additional 60 minutes at room temperature. The plates were read using a multimode reader and the emission ratio of 665 nm to 615 nm was determined. This ratio was converted to percent of control (POC). [1-(high control-sample signal)/(high control-low control)]*100. Wells without compound were used to determine high control values and wells without enzyme were used to determine low control values. The POC values were fit using a four-parameter logistic model and the value where the fit curve was equal to 50 POC was reported as the IC50 using the Signals Vitro Vivo software package (PerkinElmer). Final assay conditions were: 50 mM HEPES pH7.5, 10 mM MgCl2, 1 mM EDTA, 0.01% Brij-35, 2 mM MnCl2, 1 mM DTT, and 0.5 uM TK-peptide.
As a reminder, the IC50 is the concentration that gives 50% inhibition. Lower therefore signals greater potency in that assay. `Cc1c(-c2cc(Sc3ncccc3F)c3c(C#N)cnn3c2)cnn1[C@H]1CC[C@@H](N(C)C(=O)C(C)(C)N)CC1` [Example 254, 2-amino-N-((1s,4s)-4-(4-(3-cyano-4-((3-fluoropyridin-2-yl)thio)pyrazolo[1,5-a]pyridin-6-yl)-5-methyl-1H-pyrazol-1-y)cyclohexyl)-N,2-dimethylpropanamide] came in with an IC50 of 1 nM.
As for `CN[C@H]1CC[C@@H](n2ncc(-c3cc(Sc4ccc(F)cc4C#N)c4c(C#N)cnn4c3)c2C)CC1` [Example 255, 4-((2-cyano-4-fluorophenyl)thio)-6-(5-methyl-1-((1s,4s)-4-(methylamino)cyclohexyl)-1H-pyrazol-4-yl)pyrazolo[1,5-a]pyridine-3-carbonitrile], the figure is 0.3 nM.
With `CCN(C)[C@H]1CC[C@@H](n2ncc(-c3cc(Sc4ccccc4C#N)c4c(C#N)cnn4c3)c2C)CC1` [Example 256, 4-((2-cyanophenyl)thio)-6-(1-((1s,4s)-4-(ethyl(methyl)amino)cyclo-hexyl)-5-methyl-1H-pyrazol-4-yl)pyrazolo[1,5-a]pyridine-3-carbonitrile] the figure was 1 nM; with `Cc1c(-c2cc(Sc3ccccc3C#N)c3c(C#N)cnn3c2)cnn1[C@H]1CC[C@@H](NCC2(C)CC2)CC1` [Example 257, 4-((2-cyanophenyl)thio)-6-(5-methyl-1-((1s,4s)-4-(((1-methylcyclopropyl)methyl)amino)cyclohexyl)-1H-pyrazol-4-yl)pyrazolo[1,5-a]pyridine-3-carbonitrile], 0.5 nM.
With `N#Cc1ccccc1Sc1cc(-c2cnn(CC(F)(F)F)c2)cn2ncc(C#N)c12` [Example 258] the figure was 2 nM; with `CC(=O)N1C[C@H]2C[C@@H](n3ncc(-c4cc(Sc5ncccc5F)c5c(C#N)cnn5c4)c3C)C[C@H]2C1` [Example 259, 6-(1-((3aR,5r,6aS)-2-acetyloctahydrocyclopenta [c]pyrrol-5-yl)-5-methyl-1H-pyrazol-4-yl)-4-((3-fluoropyridin-2-yl)thio)pyrazolo[1,5-a]pyridine-3-carbonitrile], 1.5 nM; with `Cc1c(-c2cc(Sc3ccccc3C#N)c3c(C#N)cnn3c2)cnn1[C@H]1CC[C@@](C)(O)CC1` [Example 260, 4-(2-cyanophenyl)sulfanyl-6-[1-(4-hydroxy-4-methyl-cyclohexyl)-5-methyl-pyrazol-4-yl]pyrazolo[1,5-a]pyridine-3-carbonitrile], 1 nM.
`Cc1c(-c2cc(Sc3ccccc3C#N)c3c(C#N)cnn3c2)cnn1[C@H]1CC[C@](C)(O)CC1` [Example 261, 4-((2-cyanophenyl)thio)-6-(1-((1r,4r)-4-hydroxy-4-methylcyclohexyl)-5-methyl-1H-pyrazol-4-yl)pyrazolo[1,5-a]pyridine-3-carbonitrile] came in with an IC50 of 0.5 nM. Compared with the last compound, the IC50 is about 2-fold lower.
`CC(=O)N1[C@@H]2CC[C@H]1C[C@@H](n1ncc(-c3cc(Sc4ncccc4F)c4c(C#N)cnn4c3)c1C)C2` [Example 262, 6-(1-((1R,3r,5S)-8-acetyl-8-azabicyclo[3.2.1]octan-3-yl)-5-methyl-1H-pyrazol-4-yl)-4-((3-fluoropyridin-2-yl)thio)pyrazolo[1,5-a]pyridine-3-carbonitrile] gave an IC50 of 3 nM. Against the preceding compound, the IC50 is about 6-fold higher.
As for `CC(=O)N1[C@@H]2CC[C@H]1C[C@H](n1ncc(-c3cc(Sc4ncccc4F)c4c(C#N)cnn4c3)c1C)C2` [Example 263, 6-(1-((1R,3s,5S)-8-acetyl-8-azabicyclo[3.2.1]octan-3-yl)-5-methyl-1H-pyrazol-4-yl)-4-((3-fluoropyridin-2-yl)thio)pyrazolo[1,5-a]pyridine-3-carbonitrile], the figure is 3 nM.
With `Cc1c(-c2cc(Sc3ccccc3C#N)c3c(C#N)cnn3c2)cnn1[C@H]1C[C@H]2CC[C@@H](C1)N2C` [Example 264, 4-((2-cyanophenyl)thio)-6-(5-methyl-1-((1R,3r,5S)-8-methyl-8-azabicyclo[3.2.1]octan-3-yl)-1H-pyrazol-4-yl)pyrazolo[1,5-a]pyridine-3-carbonitrile] the figure was 1 nM; with `Cc1c(-c2cc(Sc3ccccc3C#N)c3c(C#N)cnn3c2)cnn1[C@@H]1C[C@H]2CC[C@@H](C1)N2C` [Example 265, 4-((2-cyanophenyl)thio)-6-(5-methyl-1-((1R,3s,5S)-8-methyl-8-azabicyclo[3.2.1]octan-3-yl)-1H-pyrazol-4-yl)pyrazolo[1,5-a]pyridine-3-carbonitrile], 0.4 nM.
In the case of `Cc1c(-c2cc(Sc3ccccc3C#N)c3c(C#N)cnn3c2)cnn1C1CCN(CC(=O)N(C)C)CC1` [Example 266, 2-(4-(4-(3-cyano-4-((2-cyanophenyl)thio)pyrazolo [1,5-a]pyridin-6-yl)-5-methyl-1H-pyrazol-1-yl)piperidin-1-yl)-N,N-dimethylacetamide], the IC50 was 0.5 nM.
The compound `Cc1c(-c2cc(Sc3ccccc3C#N)c3c(C#N)cnn3c2)cnn1C1CCN(Cc2ccccn2)CC1` [Example 267, 4-((2-cyanophenyl)thio)-6-(5-methyl-1-(1-(pyridin-2-ylmethyl)piperidin-4-yl)-1H-pyrazol-4-yl)pyrazolo[1,5-a]pyridine-3-carbonitrile] displayed an IC50 of 0.6 nM.
In turn, `Cc1c(-c2cc(Sc3ccccc3C#N)c3c(C#N)cnn3c2)cnn1[C@H]1CC[C@@H](NC(=O)C(C)(C)O)CC1` [Example 268, N-((1s,4s)-4-(4-(3-cyano-4-((2-cyanophenyl)thio)pyrazolo [1,5-a]pyridin-6-yl)-5-methyl-1H-pyrazol-1-yl)cyclohexyl)-2-hydroxy-2-methylpropanamide] had an IC50 of 0.4 nM.
As to `Cc1c(-c2cc(Sc3ncccc3F)c3c(C#N)cnn3c2)cnn1[C@H]1CC[C@@H](NCC(=O)N(C)C)CC1` [Example 269, 2-(((1s,4s)-4-(4-(3-cyano-4-((3-fluoropyridin-2-yl)thio)pyrazolo[1,5-a]pyridin-6-yl)-5-methyl-1H-pyrazol-1-yl)cyclohexyl)amino)-N,N-dimethylacetamide], the IC50 is 1 nM.
As for `Cc1c(-c2cc(Sc3ncccc3F)c3c(C#N)cnn3c2)cnn1[C@H]1CC[C@@H](NCc2ccccn2)CC1` [Example 270, 4-((3-fluoropyridin-2-yl)thio)-6-(5-methyl-1-((1s,4s)-4-((pyridin-2-ylmethyl)amino)cyclohex-yl)-1H-pyrazol-4-yl)pyrazolo[1,5-a]pyridine-3-carbonitrile], the figure is 0.7 nM; as for `Cc1c(-c2cc(Sc3ncccc3F)c3c(C#N)cnn3c2)cnn1[C@H]1CC[C@@H](NC(=O)C(C)(C)O)CC1` [Example 271, N-((1s,4s)-4-(4-(3-cyano-4-((3-fluoropyridin-2-yl)thio)pyrazolo[1,5-a]pyridin-6-yl)-5-methyl-1H-pyrazol-1-yl)cyclohexyl)-2-hydroxy-2-methylpropanamide], 1 nM.
As for `CC(=O)N[C@H]1CC[C@H](n2ncc(-c3cc(Sc4ccccc4C#N)c4c(C#N)cnn4c3)c2C)CC1` [Example 272, N-((1r,4r)-4-(4-(3-cyano-4-((2-cyanophenyl)thio)pyrazolo [1,5-a]pyridin-6-yl)-5-methyl-1H-pyrazol-1-yl)cyclohexyl)acetamide], the figure is 1 nM; as for `CC(=O)N[C@H]1CC[C@@H](n2ncc(-c3cc(Sc4ccccc4C#N)c4c(C#N)cnn4c3)c2C)CC1` [Example 273, N-((1s,4s)-4-(4-(3-cyano-4-((2-cyanophenyl)thio)pyrazolo [1,5-a]pyridin-6-yl)-5-methyl-1H-pyrazol-1-yl)cyclohexyl)acetamide], 0.5 nM.
